Test system: MXT mouse mammary tumor
Assay: Cisplatin-treated MXT mouse mammary tumor model, PALP and TF (Example 9, Experiment 1)
Assay type: in vivo
Conditions: for Body weight (total weight minus tumor weight) / Total weight / Tumor weight: every second day from day 7 (7-times): cisplatin 3-mg/kg i.p., purified PALP 16, commercial PALP 60, TF 14 mg/kg s.c.
Text: The B16 mouse melanoma and MXT mouse mammary tumors were developed in first generation hybrid BDF1 (C57 B1 female×DBA/2 male) adult female mice kept at specified pathogen free (SPF) hygienic level. These models were chosen for these experiments because these mice have the complete immune system, and both tumors grow very rapidly. To develop the tumors, B16 and MXT tumor tissue fragments of about 0.1-cm^3 were surgically implanted subcutaneously into the intrascapular region to develop the tumors. Each tumor fragment contained about 1-1.5×10^6 cells. The animals were kept in macrolon cages on ventilated rack at 22-24° C. (50-60% humidity) with lighting regimen of 12/12 h light/dark. The animals had free access to tap water and were fed with sterilized standard diet (Charles River VRF1, Germany) ad libitum. The animals were taken care of according to the “Guiding Principle for the care and use of Animals” based upon the Helsinki declaration and they were approved by the local ethical committee.
In case of both tumor models the tumor size was usually in the range of 0.2 to 0.5-g when treatments started 7-11 days after tumor implantation; the mice were selected so that in the same treatment group the difference in tumor size was no greater than 0.1 gram. In some experiments, the test proteins were suspended in physiological saline and injected in 50-μl volume subcutaneously in the vicinity of tumor (within 1-cm of tumor margin). In other experiments, the test proteins were dispersed in Vaselinum cholesteratum and used topically; 150-mg cream was applied on the tumor and the vicinity of tumor area (with about 0.5-cm of the tumor margin). The tumor volume was determined by using calipers; this technique is well known to one having ordinary skill in the art. Tumor volume was calculated according to the generally accepted formula: V=a^2×b×7r/6, where “a” and “b” mean the shortest and longest diameter, respectively, of the measured tumor.
Experiment 1. The mouse MXT mammary tumor was developed as described in Example 3. In the first group, animals remained untreated during the whole observation period. In the second group, starting on the 7th day after tumor implantation, mice were intraperitoneally (i.p.) administered 3-mg per 1-kg total weight of cisplatin 7-times every second day. In the third group, starting on the 7th day after tumor implantation, mice were simultaneously administered 3-mg per 1-kg of cisplatin i.p. and 16-mg per 1-kg of purified PALP s.c. In the fourth group, starting on the 7th day after tumor implantation, mice were simultaneously administered 3-mg per 1-kg of cisplatin i.p. and 60-mg per 1-kg of commercial PALP s.c. In the fifth group, starting on the 7th day after tumor implantation, mice were simultaneously administered 3-mg per 1-kg of cisplatin i.p. and 14-mg per 1-kg of commercial TF (T 3309 in the Sigma catalog) s.c. Each treatment was performed 7-times on every second day. Each group included 7 animals. The mean values for total weight, tumor weight and body weight (the difference between total and tumor weight) are shown in TABLE 6.

[1] = day 7 after tumor transplantation
[2] = day 11 after tumor transplantation
[3] = day 14 after tumor transplantation
[4] = day 16 after tumor transplantation
[5] = day 18 after tumor transplantation
[6] = day 21 after tumor transplantation

N.N.[Cl][Pt][Cl] [Cisplatin, cisplatin]
Body weight (total weight minus tumor weight) [1]: 22.45 g
Total weight [1]: 22.70 g
Tumor weight [1]: 0.25 g
Body weight (total weight minus tumor weight) [2]: 22.10 g
Total weight [2]: 23.10 g
Tumor weight [2]: 1.00 g
Body weight (total weight minus tumor weight) [3]: 19.50 g
Total weight [3]: 21.70 g
Tumor weight [3]: 2.20 g
Body weight (total weight minus tumor weight) [4]: 16.90 g
Total weight [4]: 20.10 g
Tumor weight [4]: 3.20 g
Body weight (total weight minus tumor weight) [5]: 16.30 g
Total weight [5]: 20.10 g
Tumor weight [5]: 3.80 g
Body weight (total weight minus tumor weight) [6]: 15.10 g
Total weight [6]: 19.20 g
Tumor weight [6]: 4.10 g
Decrease in body weight (from day 11 to day 23, cisplatin 3-mg/kg i.p. every second day): ~33%

— patent US20080098491A1, “MOUSE MODELS TO STUDY CACHEXIA” (ZOLTAN LABORATORIES LLC, priority 2006, published 2008)
